Data: patent publication US20080319001A1, “Cancer Treatment Using Specific 3,6,9-Substituted Acridines” (priority 2005, published 2008)

Experiments:
A549-derived xenografts = assay: A549 xenograft combination study; format: in vivo, mouse; conditions: single agent (AS1410 1 mg/kg or cisplatin 6 mg/kg), after approximately 60 days
Method: AS1410 was reconstituted in 0.9% saline B.P. to the required final concentration (0.331 and 0.0993) mg/ml of AS1410 succinate salt for intravenous administration).
The xenografts were prepared from the lung carcinoma A549 (ATCC Number CCL-185). Cells were grown in accordance with standard operating procedures and established methodology for this cell line to provide 5×10^6 cells per mouse.
A549-derived xenografts were established in 50 female nu/nu MF1 mice respectively by subcutaneous injection into the right flank of each mouse (5×10^6 cells in 100 μl phosphate buffered saline).
Animals were checked regularly until visible tumours appeared. Tumours were then measured in accordance with the relevant SOP regularly and tumour volume calculated using the formula: […]
Once the tumours were established, the mice were allocated into groups of 9 mice using a randomization procedure based on stratified xenograft volume.
Day 0 is defined as the day on which the average tumour volume is between 0.04 to 0.1 cm^3. Relative tumour volume on Day 0 is defined as 1.
Each mouse was observed and tumours measured until the xenografts tripled (3V0) in volume compared with volume on the day of treatment (V0). The elapsed period is the volume tripling time (VTT).
AS1410 was given by slow bolus intravenous injection. For AS1410 a dose volume 5 μl/g bodyweight was used. Control mice were untreated. […]

DU145 xenografts = assay: DU145 xenograft efficacy study; format: in vivo, mouse
Method: The mouse was selected because it is a rodent species and is internationally accepted as the species of choice for human xenograft studies. The nu/nu MF1 strain was selected.
A high dose level of 1 mg/kg given once daily for 10 days was selected for this study. Low and intermediate dose levels of 0.3 and 0.6 mg/kg/day were also selected to aid characterisation of the dose-response profile.
The test articles were reconstituted in 0.9% physiological saline B.P. to the required final concentrations; and where necessary, an organic solvent (e.g. DMSO or ethanol) was used to aid solubilisation of some materials.
Treated mice received a bolus intravenous injection of the test formulation once daily for two weeks (week-days only). A dose-volume of […] bodyweight was be used. Control mice were untreated.
A total of 175 female MF1 mice were obtained from the Biological Research Facility, SGHMS, London. Animals were in a weight range of 26-30 g (6 to 8 weeks of age). Mice were individually identified using a subcutaneously implanted microchip.
The xenografts were prepared from the DU145 cell line (ATCC HTB-81). Cells were grown in accordance with established methodology for this cell line to provide 5×10^6 cells per mouse.
Xenografts were established in the MF1 mice by subcutaneous injection into the right flank of each mouse (5×10^6 cells in […] phosphate buffered saline).
Animals were checked regularly until visible tumours appeared. Tumours were then measured in accordance with the relevant SOP three times per week and tumour volume calculated using the formula: […]
Measurements commenced approximately one week before the day of treatment (Day 0) when the xenograft reached an approximate volume of 0.05 cm^3 (e.g. dimensions of approximately 5×5×4 mm).
Once the tumours were established, mice were allocated into groups of 5 mice using a randomization procedure based on stratified xenograft volume.
Day 0 is defined as the day on which the average tumour volume is between 0.12 to 0.16 cm^3. Relative tumour volume on Day 0 is defined as 1.
Each mouse was observed and tumours measured until the xenografts tripled in volume (3Vo) compared with volume on the day of treatment (Vo). The elapsed period was the volume tripling time (VTT).

tumour cell line = conditions: Incles et al, 2004; cited from earlier work
[1] = Metabolic stability, cytosol; format: in vitro ADME

SMILES | relative tumour volume (A549-derived xenografts) | T-C value (DU145 xenografts; 0.3 mg/kg/day iv) [days] | T-C value (DU145 xenografts; 0.6 mg/kg/day iv) [days] | T-C value (DU145 xenografts; 1 mg/kg/day iv) [days] | xenograft response (DU145 xenografts; 0.3, 0.6 and 1.0 mg/kg/day iv, compared with BSG01) | end-to-end fusions in chromosomes (tumour cell line) | Cytosol (t = 30) ([1]; t = 30) | Cytosol (t = 60) ([1]; t = 60)
O=C(CCN1CCCC1)Nc1ccc2c(NCc3ccc(F)c(F)c3)c3ccc(NC(=O)CCN4CCCC4)cc3nc2c1 [BSG17, N-(9-(3,4-Difluoro-benzylamino)-6-(3-pyrolidin-1-yl-propionamide)-acridin-3-yl)-3-pyrrolidin-1-yl-propionamide] | about 5 | 7 | 11.6 | 11 | clear dose response and effects at all three dose levels | – | – | –
CN(C)c1ccc(Nc2c3ccc(NC(=O)CCN4CCCC4)cc3nc3cc(NC(=O)CCN4CCCC4)ccc23)cc1 [BSG01] | – | – | – | – | – | cause end-to-end fusions in chromosomes | 3.5 | 6.3
